Data reported in patent publication US9067897B2, “2,4-Diaminoquinazolines for spinal muscular atrophy” (Families of Spinal Muscular Atrophy, priority 2004, dated 2015).
Counter-ions that a name gives are not always drawn.

The compounds below were run on SMN2 promoter (assay: SMN2 promoter assay (β-lactamase reporter) in NSC-34 cells). Settings: Mus musculus, SMN2 promoter driving β-lactamase, 12 point dose curve, average of 3-6 dose curve experiments.
Format: cell-based, mouse
From the text: All compounds were screened using an in vitro based SMN2 promoter assay. We used NSC-34 cells, a hybrid cell line between mouse spinal cord cells and mouse neuroblastoma cells. NSC-34 cells harbor an expression plasmid containing a 3.4 kb promoter fragment of the SMN2 gene driving β-lactamase expression.
[…] […] CCF2-AM diffuses across the plasma membrane and is converted into an active β-lactamase substrate by cytoplasmic esterase. […] The fold induction is proportional to the extent of β-lactamase produced and in turn proportional to SMN2 promoter activation for a given compound relative to vehicle (DMSO) control. […] These values are used to rank activities of the compounds and derive structure activity relationship.

CC(Oc1cccc2nc(N)nc(N)c12)c1ccc(C(F)(F)F)cc1 (centres unmarked) [Example 105, 5-[1-(4-Trifluoromethylphenyl)ethoxy]quinazoline-2,4-diamine] was tested. Which EC50 did it give?
Its EC50 is under 1000 nM.

How did the EC50 turn out when Nc1nc(N)c2c(OC(CO)c3ccc(F)cc3)cccc2n1 (centres unmarked) [Example 154, 2-(2,4-Diaminoquinazolin-5-yloxy)-2-(4-fluorophenyl)ethanol hydrochloride] was run?
The EC50 was under 1000 nM.

How did the EC50 turn out when Nc1nc(N)c2c(OC3Cc4ccccc4C3)cccc2n1 [Example 40, 5-(Indan-2-yloxy)quinazoline-2,4-diamine] was run?
The EC50 was under 1000 nM.

Nc1nc(N)c2c(OCc3ccccc3C(F)(F)F)cccc2n1 [Example 99, 5-(2-Trifluoromethylbenzyloxy)-quinazoline-2,4-diamine] was tested. Which EC50 did it give?
Its EC50 is under 1000 nM.

COCOC(COc1cccc2nc(N)nc(N)c12)c1ccc2c(c1)OCO2 (centres unmarked) [Example 155, 5-(2-Benzo[1,3]dioxol-5-yl-2-methoxymethoxyethoxy)quinazoline-2,4-diamine] was tested. Which EC50 did it give?
Its EC50 is under 1000 nM.

How did the EC50 turn out when Cc1ccccc1COc1cccc2nc(N)nc(N)c12 [Example 7, 5-(2-Methylbenzyloxy)quinazoline-2,4-diamine] was run?
Its EC50 is under 1000 nM.

Nc1nc(N)c2c(OCc3c(F)cccc3F)cccc2n1 [Example 86, 5-(2,6-Difluorobenzyloxy)-quinazoline-2,4-diamine] was tested. Which EC50 did it give?
Its EC50 is under 1000 nM.

Which EC50 does the source give for Nc1nc(N)c2c(OCCc3ccccc3)cccc2n1 [Example 37, 5-Phenethyloxyquinazoline-2,4-diamine] here?
Its EC50 is under 1000 nM.

Which EC50 does the source give for Nc1nc(N)c2c(OCc3ccccc3Br)cccc2n1 [Example 74, 5-(2-Bromo-benzyloxy)-quinazoline-2,4-diamine] here?
Its EC50 is under 1000 nM.

Which EC50 does the source give for Nc1nc(N)c2c(OCc3ccoc3)cccc2n1 [Example 34, 5-(Furan-3-ylmethoxy)quinazoline-2,4-diamine] here?
Its EC50 is under 1000 nM.

How did the EC50 turn out when CN1CCCC(COc2cccc3nc(N)nc(N)c23)C1 (centres unmarked) [Example 20, 5-(1-Methylpiperidin-3-ylmethoxy)quinazoline-2,4-diamine] was run?
Its EC50 is under 1000 nM.

How did the EC50 turn out when COCC(Oc1cccc2nc(N)nc(N)c12)c1ccccc1 (centres unmarked) [Example 166, 5-(2-Methoxy-1-phenylethoxy)quinazoline-2,4-diamine] was run?
The EC50 was under 1000 nM.

With CC(Oc1cccc2nc(N)nc(N)c12)c1ccccn1 (centres unmarked) [Example 57, 5-(1-Pyridin-2-ylethoxy)quinazoline-2,4-diamine] as the compound, how does the EC50 read?
Its EC50 is under 1000 nM.

C[C@H](Oc1cccc2nc(N)nc(N)c12)c1cccc2ccccc12 [Example 108, 5-((S)-1-Naphthalen-1-yl-ethoxy)-quinazoline-2,4-diamine] was tested. Which EC50 did it give?
Its EC50 is 1000 to 5000 nM.

Which EC50 does the source give for CC(Oc1cccc2nc(N)nc(N)c12)c1ccc(Cl)cc1 (centres unmarked) [Example 49, 5-[1-(4-Chlorophenyl)ethoxy]quinazoline-2,4-diamine] here?
The EC50 was under 1000 nM.

With Cc1ccc(Cc2cccc3nc(N)nc(N)c23)cc1 [Example 23, 5-(4-Methylbenzyl)quinazoline-2,4-diamine] as the compound, how does the EC50 read?
The EC50 was 1000 to 5000 nM.

How did the EC50 turn out when Nc1nc(N)c2c(COc3ccc(F)cc3F)cccc2n1 [Example 147, 5-(2,4-Difluorophenoxymethyl)quinazoline-2,4-diamine] was run?
The EC50 was under 1000 nM.

With Nc1nc(N)c2c(OCCc3ccc(Cl)cc3)cccc2n1 [Example 9, 5-[2-(4-Chlorophenyl)ethoxy]quinazoline-2,4-diamine] as the compound, how does the EC50 read?
Its EC50 is under 1000 nM.

Which EC50 does the source give for COCOCC(Oc1cccc2nc(N)nc(N)c12)c1ccc(F)cc1 (centres unmarked) [Example 153, 5-[1-(4-Fluorophenyl)-2-methoxymethoxyethoxy]quinazoline-2,4-diamine] here?
Its EC50 is under 1000 nM.

Which EC50 does the source give for CC(Oc1cccc2nc(N)nc(N)c12)c1cccc(Cl)c1 (centres unmarked) [Example 28, 5-[1-(3-Chlorophenyl)ethoxy]quinazoline-2,4-diamine] here?
Its EC50 is under 1000 nM.

Cc1cc(OCc2cccc3nc(N)nc(N)c23)ccc1Cl [Example 141, 5-(4-Chloro-3-methylphenoxymethyl)quinazoline-2,4-diamine] was tested. Which EC50 did it give?
The EC50 was under 1000 nM.

Cc1cc(COc2cccc3nc(N)nc(N)c23)no1 [Example 53, 5-(5-Methylisoxazol-3-ylmethoxy)quinazoline-2,4-diamine] was tested. Which EC50 did it give?
Its EC50 is under 1000 nM.

With Nc1nc(N)c2c(Cc3ccsc3)cccc2n1 [Example 46, 5-Thiophen-3-ylmethylquinazoline-2,4-diamine] as the compound, how does the EC50 read?
The EC50 was under 1000 nM.

Which EC50 does the source give for CC(Oc1cccc2nc(N)nc(N)c12)c1ccc(Cl)c(Cl)c1 (centres unmarked) [Example 78, 5-[1-(3,4-Dichlorophenyl)-ethoxy]-quinazoline-2,4-diamine] here?
Its EC50 is under 1000 nM.

How did the EC50 turn out when CC(C)(C)OC(=O)N1CCC(COc2cccc3nc(N)nc(N)c23)CC1 [Example 121, 4-(2,4-Diamino-quinazolin-5-yloxymethyl)-piperidin-1-carboxylic acid tert-butyl ester] was run?
The EC50 was under 1000 nM.

With Cc1ccc(CCOc2cccc3nc(N)nc(N)c23)cc1 [Example 8, 5-(2-p-Tolylethoxy)quinazoline-2,4-diamine] as the compound, how does the EC50 read?
The EC50 was under 1000 nM.

For Nc1nc(N)c2c(OCC34CC5CC(CC(C5)C3)C4)cccc2n1 [Example 73, 5-(Adamantan-1-ylmethoxy)-quinazoline-2,4-diamine], which EC50 is on record?
Its EC50 is under 1000 nM.

For Nc1nc(N)c2c(OCC3CC3)cccc2n1 [Example 16, 5-(Cyclopropylmethoxy)quinazoline-2,4-diamine], which EC50 is on record?
The EC50 was under 1000 nM.

Nc1nc(N)c2c(-c3ccsc3)cccc2n1 [Example 90, 5-Thiophen-3-yl-quinazoline-2,4-diamine] was tested. Which EC50 did it give?
Its EC50 is 1000 to 5000 nM.

CC(Oc1cccc2nc(N)nc(N)c12)c1cccc(C(F)(F)F)c1 (centres unmarked) [Example 95, 5-[1-(3-Trifluoromethylphenyl)-ethoxy]-quinazoline-2,4-diamine] was tested. Which EC50 did it give?
Its EC50 is under 1000 nM.

How did the EC50 turn out when CC(Oc1cccc2nc(N)nc(N)c12)c1ccccc1F (centres unmarked) [Example 103, 5-[1-(2-Fluorophenyl)-ethoxy]-quinazoline-2,4-diamine] was run?
Its EC50 is under 1000 nM.

CC(Oc1cccc2nc(N)nc(N)c12)c1c(F)cccc1F (centres unmarked) [Example 82, 5-[1-(2,6-Difluorophenyl)-ethoxy]-quinazoline-2,4-diamine] was tested. Which EC50 did it give?
The EC50 was under 1000 nM.

For CC(Oc1cccc2nc(N)nc(N)c12)c1nccs1 (centres unmarked) [Example 58, 5-(1-Thiazol-2-ylethoxy)quinazoline-2,4-diamine], which EC50 is on record?
The EC50 was under 1000 nM.

With CCCC(Oc1cccc2nc(N)nc(N)c12)C1CCCCC1 (centres unmarked) [Example 125, 5-(1-Cyclohexyl-butoxy)-quinazoline-2,4-diamine] as the compound, how does the EC50 read?
Its EC50 is under 1000 nM.

Nc1nc(N)c2c(COc3ccccc3Cl)cccc2n1 [Example 138, 5-(2-Chlorophenoxymethyl)quinazoline-2,4-diamine] was tested. Which EC50 did it give?
Its EC50 is under 1000 nM.

Which EC50 does the source give for Nc1nc(N)c2c(OCC3CCN(C(=O)c4ccccc4Cl)CC3)cccc2n1 [Example 133, (2-Chlorophenyl)-[4-(2,4-diamino-quinazolin-5-yloxymethyl)-piperidin-1-yl]-methanone] here?
The EC50 was under 1000 nM.

Nc1nc(N)c2c(OCc3cc(Cl)cc(Cl)c3)cccc2n1 [Example 106, 5-(3,5-Dichlorobenzyloxy)quinazoline-2,4-diamine] was tested. Which EC50 did it give?
The EC50 was under 1000 nM.

Which EC50 does the source give for Nc1nc(N)c2c(OCC(F)(F)F)cccc2n1 [Example 3, 5-(2,2,2-Trifluoroethoxy)quinazoline-2,4-diamine] here?
The EC50 was 1000 to 5000 nM.

How did the EC50 turn out when Nc1nc(N)c2c(OCC3CCCC3)cccc2n1 [Example 18, 5-(Cyclopentylmethoxy)quinazoline-2,4-diamine] was run?
Its EC50 is under 1000 nM.

CC(Oc1cccc2nc(N)nc(N)c12)c1ccccc1 (centres unmarked) [Example 12, 5-(1-Phenylethoxy)quinazoline-2,4-diamine] was tested. Which EC50 did it give?
The EC50 was under 1000 nM.

Nc1nc(N)c2c(OC3CCc4ccc(Cl)cc43)cccc2n1 (centres unmarked) [Example 61, 5-(6-Chloro-indan-1-yloxy)-quinazoline-2,4-diamine] was tested. Which EC50 did it give?
The EC50 was under 1000 nM.

For Nc1nc(N)c2c(COc3ccc(F)cc3)cccc2n1 [Example 45, 5-(4-Fluorophenoxymethyl)quinazoline-2,4-diamine], which EC50 is on record?
Its EC50 is under 1000 nM.

How did the EC50 turn out when Nc1nc(N)c2c(OCc3ccccc3)cccc2n1 [Example 35, 5-Benzyloxyquinazoline-2,4-diamine] was run?
Its EC50 is under 1000 nM.

Which EC50 does the source give for Nc1nc(N)c2c(OC(c3ccccc3)c3ccccc3)cccc2n1 [Example 52, 5-Benzhydryloxyquinazoline-2,4-diamine] here?
Its EC50 is under 1000 nM.

With Nc1nc(N)c2c(OCC(O)c3ccc(C(F)(F)F)cc3)cccc2n1 (centres unmarked) [Example 163, 2-(2,4-Diaminoquinazolin-5-yloxy)-1-(4-trifluoromethylphenyl)ethanol] as the compound, how does the EC50 read?
The EC50 was under 1000 nM.

Nc1nc(N)c2c(OCc3cc(F)cc(F)c3F)cccc2n1 [Example 83, 5-(2,3,5-Trifluorobenzyloxy)-quinazoline-2,4-diamine] was tested. Which EC50 did it give?
The EC50 was under 1000 nM.

With COc1cc(Cl)ccc1Oc1cccc2nc(N)nc(N)c12 [Example 71, 5-(4-Chloro-2-methoxyphenoxy)-quinazoline-2,4-diamine] as the compound, how does the EC50 read?
Its EC50 is under 1000 nM.

How did the EC50 turn out when COc1ccc(OCc2cccc3nc(N)nc(N)c23)cc1 [Example 148, 5-(4-Methoxyphenoxymethyl)quinazoline-2,4-diamine] was run?
Its EC50 is 1000 to 5000 nM.

Which EC50 does the source give for CC1=NOC(COc2cccc3nc(N)nc(N)c23)C1 (centres unmarked) [Example 33, 5-(3-Methyl-4,5-dihydroisoxazol-5-ylmethoxy)quinazoline-2,4-diamine] here?
Its EC50 is 1000 to 5000 nM.

COc1cc(OC)cc(C(C)Oc2cccc3nc(N)nc(N)c23)c1 (centres unmarked) [Example 67, 5-[1-(3,5-Dimethoxyphenyl)-ethoxy]-quinazoline-2,4-diamine] was tested. Which EC50 did it give?
The EC50 was under 1000 nM.

Same assay, conditions: SMN2 promoter driving β-lactamase, 12 point dose curve, average of 3-6 dose curve experiments

With Nc1nc(N)c2c(OC3C4CC5CC(C4)CC3C5)cccc2n1 (centres unmarked) [Example 119, 5-(Adamanta-2-yloxy)quiazoline-2,4-diamine] as the compound, how does the EC50 read?
Its EC50 is under 1000 nM.

How did the EC50 turn out when Nc1nc(N)c2c(OCC3CCN(C(=O)c4ccccc4I)CC3)cccc2n1 [Example 137, [4-(2,4-Diaminoquinzolin-5-yloxymethyl)piperidin-1-yl]-(2-iodophenyl)methanone] was run?
Its EC50 is under 1000 nM.

Nc1nc(N)c2c(OCC3CCN(C(=O)c4ccc(I)cc4)CC3)cccc2n1 [Example 136, [4-(2,4-Diaminoquinzolin-5-yloxymethyl)piperidin-1-yl]-(4-iodophenyl)methanone] was tested. Which EC50 did it give?
Its EC50 is under 1000 nM.
